From patent US20210198277A1, “AMINE-SUBSTITUTED ARYL OR HETEROARYL COMPOUNDS” (Epizyme, Inc., priority 2016, published 2021)
pIC50: −log10 of the molar value. Like-named read-outs stand apart in the source and are kept apart here.

Legend:
human EHMT2 913-1193 = biological target: T1, human EHMT2 913-1193 (Homo sapiens, UniProt Q96KQ7); assay: EHMT2 enzyme assay on histone peptide substrate (EHMT2 PEP); assay type: biochemical; conditions: for IC50: recombinant human EHMT2 913-1193, histone H3 1-15 peptide, balanced conditions, read-out: EHMT2 PEP (IC50 μM); for pIC50: Table VII, read-out: EHMT2 PEP IC50
T1 construct: recombinant purified human EHMT2 913-1193, Viva; purchased Viva
T1 sequence (Q96KQ7 913-1193): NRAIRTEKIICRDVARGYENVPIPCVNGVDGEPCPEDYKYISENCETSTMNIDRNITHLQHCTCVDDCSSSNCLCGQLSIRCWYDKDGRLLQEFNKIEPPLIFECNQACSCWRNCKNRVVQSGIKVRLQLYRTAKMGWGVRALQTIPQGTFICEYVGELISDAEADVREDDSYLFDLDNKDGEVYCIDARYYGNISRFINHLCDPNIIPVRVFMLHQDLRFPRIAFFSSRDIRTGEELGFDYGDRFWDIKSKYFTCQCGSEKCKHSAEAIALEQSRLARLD
Method in brief: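 Compounds (10-point, 3-fold dilutions, top 50 μM final, 2% DMSO) preincubated 30 min with 0.031 nM EHMT2 in 20 mM Bicine pH 7.5, 0.002% Tween 20, 0.005% gelatin, 1 mM TCEP. Biotinylated histone peptide methylated with ^3H-SAM 60 min at room temperature. Quenched with unlabeled SAM; product captured on streptavidin Flashplate, scintillation counted.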

EHMT1 = biological target: T2, EHMT1 (Homo sapiens, UniProt Q9H9B1); assay: EHMT1 enzyme assay on peptide substrate (EHMT1 PEP); assay type: biochemical; conditions: for IC50: read-out: EHMT1 PEP (IC50 μM); for pIC50: Table VII, read-out: EHMT1 PEP IC50
T2 sequence (Q9H9B1 1-1298): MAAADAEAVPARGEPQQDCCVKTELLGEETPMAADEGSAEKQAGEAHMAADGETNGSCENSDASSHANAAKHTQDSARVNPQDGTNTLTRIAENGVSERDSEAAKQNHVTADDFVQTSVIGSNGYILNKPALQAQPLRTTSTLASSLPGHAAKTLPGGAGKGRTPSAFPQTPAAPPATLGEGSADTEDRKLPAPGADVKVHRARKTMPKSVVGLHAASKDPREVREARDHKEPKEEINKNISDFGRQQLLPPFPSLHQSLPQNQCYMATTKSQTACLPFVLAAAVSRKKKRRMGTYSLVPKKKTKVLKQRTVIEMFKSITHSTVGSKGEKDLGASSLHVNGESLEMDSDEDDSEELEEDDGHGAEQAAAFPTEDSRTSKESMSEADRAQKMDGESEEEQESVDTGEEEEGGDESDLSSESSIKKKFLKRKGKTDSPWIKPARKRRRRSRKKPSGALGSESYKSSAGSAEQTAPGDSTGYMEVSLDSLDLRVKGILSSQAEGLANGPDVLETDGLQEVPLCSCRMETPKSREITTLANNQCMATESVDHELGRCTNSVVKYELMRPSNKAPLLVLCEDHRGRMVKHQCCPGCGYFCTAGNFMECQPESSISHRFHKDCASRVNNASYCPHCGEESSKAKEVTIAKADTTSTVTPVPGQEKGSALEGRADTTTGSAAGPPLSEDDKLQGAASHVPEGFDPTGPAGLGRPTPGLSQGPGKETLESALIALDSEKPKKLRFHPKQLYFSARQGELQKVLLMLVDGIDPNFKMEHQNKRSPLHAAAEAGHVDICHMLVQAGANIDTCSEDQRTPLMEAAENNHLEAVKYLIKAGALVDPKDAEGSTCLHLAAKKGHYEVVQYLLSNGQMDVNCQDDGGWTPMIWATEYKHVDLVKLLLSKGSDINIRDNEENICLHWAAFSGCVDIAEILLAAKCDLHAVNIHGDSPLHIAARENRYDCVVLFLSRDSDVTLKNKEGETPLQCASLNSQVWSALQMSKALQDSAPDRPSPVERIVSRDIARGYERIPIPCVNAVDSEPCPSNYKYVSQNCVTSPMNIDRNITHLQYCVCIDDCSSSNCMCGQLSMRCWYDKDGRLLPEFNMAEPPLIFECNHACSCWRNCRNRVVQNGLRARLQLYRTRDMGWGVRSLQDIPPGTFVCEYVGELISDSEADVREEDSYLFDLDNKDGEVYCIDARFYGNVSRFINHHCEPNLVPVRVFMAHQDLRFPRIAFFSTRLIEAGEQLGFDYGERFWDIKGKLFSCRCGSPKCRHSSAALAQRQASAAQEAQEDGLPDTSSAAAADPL

Row | SMILES | IC50 (human EHMT2 913-1193) | IC50 (EHMT1) | pIC50 (human EHMT2 913-1193) | pIC50 (EHMT1)
1 | CNc1cc(C)nc(Nc2ccc(OC)c(OCCCCN(C)C)c2)n1 [Compound 502] | 1 to 10 µM | 0.1 to 1 µM |  | 
2 | CNc1cc(C)nc(Nc2ccc(OC)c(OCCC3CCN(C)C3)c2)n1 (stereo not drawn) [Compound 503] | 1 to 10 µM | 1 to 10 µM |  | 
3 | CNc1cc(C)nc(Nc2ccc(OC)c(OCCCN3CCCC3C)c2)n1 (stereo not drawn) [Compound 504, N^2-(4-methoxy-3-(3-(2-methylpyrrolidin-1-yl)propoxy)phenyl)-N^4,6-dimethylpyrimidine-2,4-diamine] | 0.1 to 1 µM | 0.1 to 1 µM |  | 
4 | CNc1cc(C)nc(Nc2ccc(OC)c(OCCCN3CC4CC4C3)c2)n1 (stereo not drawn) [Compound 506] | < 0.1 µM | < 0.1 µM |  | 
5 | COc1cnc(Nc2nccc3[nH]ccc23)cc1OCCCN1CC2CC2C1 (stereo not drawn) [Compound 507] | < 0.1 µM | < 0.1 µM |  | 
6 | CNc1cc(C)nc(Nc2ccc(OC)c(OCCC3CN(C)C3)c2)n1 [Compound 508] | 1 to 10 µM | 1 to 10 µM |  | 
7 | CNc1cc(Nc2cc(OCCCN3CC4CC4C3)c(OC)cn2)nc(C)c1F (stereo not drawn) [Compound 509] | 0.1 to 1 µM | < 0.1 µM |  | 
8 | CNc1cc(C)nc(Nc2ccc(OC)c(OCC3CN(C4CC4)C3)c2)n1 [Compound 510] | 0.1 to 1 µM | < 0.1 µM |  | 
9 | CNc1cc(C)nc(Nc2cnc(OC)c(OC[C@@H]3CCN(C4CC4)C3)c2)n1 [Compound 512] | < 0.1 µM | < 0.1 µM |  | 
10 | CNc1cc(C)nc(Nc2cnc(OC)c(OCCCN3CC4CC4C3)c2)n1 (stereo not drawn) [Compound 514] | 0.1 to 1 µM | < 0.1 µM |  | 
11 | CCc1ncc(Nc2nc(C)cc(NC)n2)cc1OCCCN1CCCC1 [Compound 515] | 1 to 10 µM | 1 to 10 µM |  | 
12 | CNc1cc(C)nc(Nc2cnc(C3CC3)c(OCCCN3CCCC3)c2)n1 [Compound 516] | 1 to 10 µM | 1 to 10 µM |  | 
13 | CNc1cc(C)nc(Nc2ccc(OC)c(OCC3CCCN(C4CC4)C3)c2)n1 (stereo not drawn) [Compound 517a] | 0.1 to 1 µM | 0.1 to 1 µM |  | 
14 | CNc1cc(C)nc(Nc2ccc(OC)c(OC[C@H]3CCCN(C4CC4)C3)c2)n1 [Compound 517b] | 0.1 to 1 µM | 0.1 to 1 µM |  | 
15 | CNc1nc(C2CCCC2)c2cc(OC)c(OCCCN3CCCC3)cc2n1 [Compound 518, 4-cyclopentyl-6-methoxy-N-methyl-7-(3-(pyrrolidin-1-yl)propoxy)quinazolin-2-amine] | 1 to 10 µM | 1 to 10 µM |  | 
16 | CNc1nc(C2CCN(C(C)=O)CC2)c2cc(OC)c(OCCCN3CCCC3)cc2n1 [Compound 519] | 0.1 to 1 µM | 1 to 10 µM |  | 
17 | CNc1nc(C2CCNCC2)c2cc(OC)c(OCCCN3CCCC3)cc2n1 [Compound 520] | < 0.1 µM | < 0.1 µM |  | 
18 | CNc1nc(C2CCOCC2)c2cc(OC)c(OCCCN3CCCC3)cc2n1 [Compound 521] | 1 to 10 µM | 1 to 10 µM |  | 
19 | CNc1nc(C2=CCOCC2)c2cc(OC)c(OCCCN3CCCC3)cc2n1 [Compound 522] | 1 to 10 µM | 1 to 10 µM |  | 
20 | CNc1nc(C2CCCCC2)c2cc(OC)c(OCCCN3CCCC3)cc2n1 [Compound 523, 4-cyclohexyl-6-methoxy-N-methyl-7-(3-(pyrrolidin-1-yl)propoxy)quinazolin-2-amine] | 1 to 10 µM | 1 to 10 µM |  | 
21 | CNc1cc(C2CCOCC2)c2cc(OC)c(OCCCN3CCCC3)cc2n1 [Compound 524, 6-methoxy-N-methyl-4-(oxan-4-yl)-7-[3-(pyrrolidin-1-yl)propoxy]quinolin-2-amine] | < 0.1 µM | < 0.1 µM |  | 

Row | SMILES | IC50 (human EHMT2 913-1193) | IC50 (EHMT1) | pIC50 (human EHMT2 913-1193) | pIC50 (EHMT1)
22 | CNc1nc(C2CCN(C(C)C)CC2)c2cc(OC)c(OC[C@@H]3CCN(C4CC4)C3)cc2n1 [Compound 526] | < 0.1 µM | < 0.1 µM |  | 
23 | COc1cc2c(C3CCN(C)CC3)nc(N3CCCC3)nc2cc1OCCCN1CCCC1 [Compound 527] | < 0.1 µM | < 0.1 µM |  | 
24 | COc1cc2c(C3CCN(C)CC3)nc(N3CCC(F)(F)CC3)nc2cc1OCCCN1CCCC1 [Compound 528] | 0.1 to 1 µM | 0.1 to 1 µM |  | 
25 | COc1cc2c(C3CCN(C)CC3)nc(NC3CCCC3)nc2cc1OCCCN1CCCC1 [Compound 529] | < 0.1 µM | < 0.1 µM |  | 
26 | CNc1nc(C2CCN(C(C)C)CC2)c2cc(OC)c(OCCCN3CCCC3)cc2n1 [Compound 530] | < 0.1 µM | < 0.1 µM |  | 
27 | CNc1nc(C2CCN(C)CC2)c2cc(OC)c(OCCCN3CC4CC4C3)cc2n1 (stereo not drawn) [Compound 532] | < 0.1 µM | < 0.1 µM |  | 
28 | CNc1nc(C2CCN(CCO)CC2)c2cc(OC)c(OCCCN3CCCC3)cc2n1 [Compound 533] | < 0.1 µM | < 0.1 µM |  | 
29 | CNc1nc(C2CC(C)(C)NC(C)(C)C2)c2cc(OC)c(OCCCN3CCCC3)cc2n1 [Compound 534] | 1 to 10 µM | 1 to 10 µM |  | 
30 | CNc1cc(C2CCN(C)CC2)c2cc(OC)c(OCCCN3CCCC3)cc2n1 [Compound 535] | < 0.1 µM | < 0.1 µM |  | 
31 | COc1cc2c(C3CCN(C)CC3)cc(C)nc2cc1OCCCN1CCCC1 [Compound 536] | < 0.1 µM | < 0.1 µM |  | 
32 | CCCCNc1nccc(NC)n1 [Compound 543, N^2-butyl-N^4-methylpyrimidine-2,4-diamine] | > 10 µM | > 10 µM |  | 
33 | CNc1cc(C)nc(Nc2ccc(OC)c(OC[C@@H](O)CN3CCCC3)c2)n1 [Compound 1044] |  |  | 6.00 to 7.00 | 6.00 to 7.00
34 | CNc1cc(C)nc(Nc2ccc(OC)c(OC[C@H](O)CN3CCCC3)c2)n1 [Compound 1045] |  |  | > 7.00 | > 7.00
35 | CNc1ccnc(Nc2ccc(OC)c(OC[C@@H](O)CN3CCC3)c2)n1 [Compound 1046] |  |  | 5.00 to 6.00 | 5.00 to 6.00
36 | CNc1cc(C2CCOCC2)c2cc(OC)c(OC[C@H](O)CN3CCC3)cc2n1 [Compound 1108] |  |  | > 7.00 | > 7.00
37 | CNc1cc(C)nc(Nc2ccc(OC)c(CNCCNC3CCC3)c2)n1 [Compound 1109] |  |  | 5.00 to 6.00 | 6.00 to 7.00
38 | CNc1cc(C)nc(Nc2cnc(OC)c(CNCCN3CCC3)c2)n1 [Compound 1110] |  |  | 6.00 to 7.00 | > 7.00
39 | CNc1cc(C2CCOCC2)c2cc(OC)c(CNCCN3CCCC3)cc2n1 [Compound 1111] |  |  | > 7.00 | > 7.00
40 | CNc1cc(C)nc(Nc2ccc(OC)c(OC[C@H](O)CN(C)C)c2)n1 [Compound 1112] |  |  | 6.00 to 7.00 | > 7.00
41 | CCN(C)C[C@@H](O)COc1cc(Nc2nc(C)cc(NC)n2)ccc1OC [Compound 1113] |  |  | 6.00 to 7.00 | > 7.00
42 | CNc1cc(C)nc(Nc2ccc(C)c(C(=O)NCc3ccon3)c2)n1 [Compound 1114] |  |  | < 5.00 | < 5.00
